Patent US6737383B1, “Herbicidal oxadiazolidines” (priority 1999, dated 2004)

How the values were obtained:
[1] = system: blackgrass; experiment: Test B pre/postemergence blackgrass; assay type: in vivo, Alopecurus myosuroides; details: for Blackgrass plant response rating: scale of 0 to 10 where 0 is no effect and 10 is complete control
In short: (§1)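 Response is a visual 0-to-10 score relative to untreated plants, where 0 means no effect and 10 means complete control, taken twelve to sixteen days after application. Treatments went onto soil at planting and onto foliage of 1- to 4-leaf plants, using a surfactant-containing non-phytotoxic solvent.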

[2] = system: surinam grass; experiment: Test B pre/postemergence surinam grass; assay type: in vivo, Brachiaria decumbens; details: for B. signalgrass plant response rating: scale of 0 to 10 where 0 is no effect and 10 is complete control
In short: as §1

[3] = system: corn; experiment: Test B pre/postemergence corn; assay type: in vivo, Zea mays; details: for Corn plant response rating: scale of 0 to 10 where 0 is no effect and 10 is complete control
In short: as §1

[4] = system: crabgrass; experiment: Test B pre/postemergence crabgrass; assay type: in vivo, Digitaria sanguinalis; details: for Crabgrass plant response rating: scale of 0 to 10 where 0 is no effect and 10 is complete control
In short: as §1

[5] = system: giant foxtail; experiment: Test B pre/postemergence giant foxtail; assay type: in vivo, Setaria faberii; details: for Giant foxtail plant response rating: scale of 0 to 10 where 0 is no effect and 10 is complete control
In short: as §1

[6] = system: rape; experiment: Test B pre/postemergence rape; assay type: in vivo, Brassica napus; details: for Rape plant response rating: scale of 0 to 10 where 0 is no effect and 10 is complete control
In short: as §1

[7] = system: sugar beet; experiment: Test B pre/postemergence sugar beet; assay type: in vivo, Beta vulgaris; details: for Sugarbeets plant response rating: scale of 0 to 10 where 0 is no effect and 10 is complete control
In short: as §1

[8] = system: velvetleaf; experiment: Test B pre/postemergence velvetleaf; assay type: in vivo, Abutilon theophrasti; details: for Velvetleaf plant response rating: scale of 0 to 10 where 0 is no effect and 10 is complete control
In short: as §1

[9] = system: wheat; experiment: Test B pre/postemergence wheat; assay type: in vivo, Triticum aestivum; details: for Wheat plant response rating: scale of 0 to 10 where 0 is no effect and 10 is complete control
In short: as §1

[10] = system: wild oat; experiment: Test B pre/postemergence wild oat; assay type: in vivo, Avena fatua; details: for Wild oats plant response rating: scale of 0 to 10 where 0 is no effect and 10 is complete control
In short: as §1

[11] = system: purple nutsedge; experiment: Test B pre/postemergence purple nutsedge; assay type: in vivo, Cyperus rotundus; details: for Nutsedge plant response rating: scale of 0 to 10 where 0 is no effect and 10 is complete control
In short: as §1

[12] = system: rice; experiment: Test B flood test rice; assay type: in vivo, Oryza sativa
In short: (§2)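 Read-out is a visual response score from 0 (no effect) to 10 (complete control), assigned by comparison with untreated controls. Treatment was applied at the 2-leaf stage, and plants stayed in the greenhouse for twelve to sixteen days before scoring.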

[13] = system: smallflower flatsedge; experiment: Test B flood test smallflower flatsedge; assay type: in vivo, Cyperus difformis
In short: as §2

[14] = system: duck salad; experiment: Test B flood test duck salad; assay type: in vivo, Heteranthera limosa
In short: as §2

[15] = system: bamyardgrass; experiment: Test B flood test barnyardgrass; assay type: in vivo, Echinochloa crus-galli
In short: as §2

[16] = Postemergence, Rate 125 g/ha, scale 0 to 10, 0 is no effect, 10 is complete control
[17] = Postemergence, Rate 250 g/ha, scale 0 to 10, 0 is no effect, 10 is complete control
[18] = Preemergence, Rate 62 g/ha, scale 0 to 10 (0 no effect, 10 complete control)
[19] = Rate 500 g/ha, Postemergence, scale 0 to 10, 0 no effect, 10 complete control
[20] = Rate 62 g/ha, flood test species, Pre-emergence, visual evaluation after twelve to sixteen days
[21] = Rate 125 g/ha, under heading Pre-emergence, flood test species, visual evaluation after twelve to sixteen days
[22] = Rate 250 g/ha, Pre-emergence, flood-test species, scale 0 to 10, 0 is no effect, 10 is complete control
[23] = Rate 500 g/ha, Pre-emergence, flood test species, scale 0 to 10 (0 no effect, 10 complete control)

CC1CC1n1c(=O)on(C(=O)N(c2ccc(F)cc2)C(C)C)c1=O (stereo not shown) [Compound 371]
7: Corn plant response rating ([3]; Preemergence, Rate 500 g/ha) | Plant response rating, Giant foxtail [5, 16] | Barnyardgrass plant response rating [15, 23]
10: Blackgrass plant response rating ([1]; Preemergence, Rate 250 g/ha) | Blackgrass plant response rating ([1]; Preemergence, Rate 500 g/ha) | Crabgrass plant response rating (0 to 10 scale) ([4]; Preemergence, Rate 125 g/ha) | Crabgrass plant response rating ([4]; Preemergence, Rate 250 g/ha) | Crabgrass plant response rating ([4]; Preemergence, Rate 500 g/ha) | Plant response rating, Giant foxtail [5, 18] | Giant foxtail plant response rating (0 to 10 scale) ([5]; Preemergence, Rate 125 g/ha) | Giant foxtail plant response rating ([5]; Preemergence, Rate 250 g/ha) | Giant foxtail plant response rating ([5]; Preemergence, Rate 500 g/ha) | Rape plant response rating ([6]; Preemergence, Rate 500 g/ha) | Sugarbeets plant response rating ([7]; Preemergence, Rate 500 g/ha)
2: Plant response rating, Blackgrass [1, 16] | Blackgrass plant response rating ([1]; Rate 62 g/ha, Postemergence) | B. signalgrass plant response rating (0 to 10 scale, 0 is no effect, 10 is complete control) ([2]; Preemergence, Rate 125 g/ha) | B. signalgrass plant response rating ([2]; Preemergence, Rate 250 g/ha) | Corn plant response rating ([3]; Preemergence, Rate 250 g/ha) | Plant response rating, Velvetleaf [8, 17] | Wheat plant response rating ([9]; Preemergence, Rate 250 g/ha) | Ducksalad plant response rating [14, 23]
5: Plant response rating, Blackgrass [1, 18] | Giant foxtail plant response rating ([5]; Rate 62 g/ha, Postemergence) | Velvetleaf plant response rating ([8]; Preemergence, Rate 250 g/ha) | Nutsedge plant response rating ([11]; Preemergence, Rate 250 g/ha) | Rice plant response rating [12, 23]
6: Plant response rating, Blackgrass [1, 17] | Plant response rating, B. signalgrass [2, 19] | Sugarbeets plant response rating (0 to 10 scale) ([7]; Preemergence, Rate 125 g/ha) | Sugarbeets plant response rating ([7]; Preemergence, Rate 250 g/ha) | Velvetleaf plant response rating ([8]; Preemergence, Rate 500 g/ha) | Wild oats plant response rating ([10]; Preemergence, Rate 500 g/ha)
8: Plant response rating, Blackgrass [1, 19] | Plant response rating, Crabgrass [4, 17] | Plant response rating, Crabgrass [4, 18] | Plant response rating, Giant foxtail [5, 17]
0: Plant response rating, B. signalgrass [2, 16] | Plant response rating, B. signalgrass [2, 18] | B. signalgrass plant response rating ([2]; Rate 62 g/ha, Postemergence) | Plant response rating, Corn [3, 16] | Plant response rating, Corn [3, 17] | Plant response rating, Corn [3, 18] | Corn plant response rating (0 to 10 scale) ([3]; Preemergence, Rate 125 g/ha) | Corn plant response rating ([3]; Rate 62 g/ha, Postemergence) | Plant response rating, Rape [6, 16] | Plant response rating, Rape [6, 17] | Plant response rating, Rape [6, 18] | Rape plant response rating ([6]; Rate 62 g/ha, Postemergence) | Plant response rating, Rape [6, 19] | Plant response rating, Sugarbeets [7, 16] | Plant response rating, Sugarbeets [7, 17] | Plant response rating, Sugarbeets [7, 18] | Sugarbeets plant response rating ([7]; Rate 62 g/ha, Postemergence) | Plant response rating, Sugarbeets [7, 19] | Plant response rating, Velvetleaf [8, 16] | Plant response rating, Velvetleaf [8, 18] | Velvetleaf plant response rating ([8]; Rate 62 g/ha, Postemergence) | Plant response rating, Wheat [9, 16] | Plant response rating, Wheat [9, 17] | Plant response rating, Wheat [9, 18] | Wheat plant response rating (0 to 10 scale) ([9]; Preemergence, Rate 125 g/ha) | Wheat plant response rating ([9]; Rate 62 g/ha, Postemergence) | Plant response rating, Wild oats [10, 16] | Plant response rating, Wild oats [10, 18] | Wild oats plant response rating ([10]; Rate 62 g/ha, Postemergence) | Plant response rating, Nutsedge [11, 16] | Plant response rating, Nutsedge [11, 17] | Plant response rating, Nutsedge [11, 18] | Nutsedge plant response rating (0 to 10 scale) ([11]; Preemergence, Rate 125 g/ha) | Nutsedge plant response rating ([11]; Rate 62 g/ha, Postemergence) | Plant response rating, Nutsedge [11, 19] | Plant response rating, Rice (0 to 10 scale, 0 is no effect, 10 is complete control) [12, 20] | Rice plant response rating (0 to 10 scale, 0 is no effect, 10 is complete control) [12, 21] | Rice plant response rating [12, 22] | Plant response rating, S. Flatsedge (0 to 10 scale, 0 is no effect, 10 is complete control) [13, 20] | S. Flatsedge plant response rating (0 to 10 scale, 0 is no effect, 10 is complete control) [13, 21] | S. Flatsedge plant response rating [13, 22] | Plant response rating, Ducksalad (0 to 10 scale, 0 is no effect, 10 is complete control) [14, 20] | Ducksalad plant response rating (0 to 10 scale, 0 is no effect, 10 is complete control) [14, 21] | Ducksalad plant response rating [14, 22] | Plant response rating, Barnyardgrass (0 to 10 scale, 0 is no effect, 10 is complete control) [15, 20] | Barnyardgrass plant response rating (0 to 10 scale, 0 is no effect, 10 is complete control) [15, 21] | Barnyardgrass plant response rating [15, 22]
1: Plant response rating, Corn [3, 19]
4: B. signalgrass plant response rating ([2]; Preemergence, Rate 500 g/ha) | Plant response rating, Crabgrass [4, 16] | Rape plant response rating (0 to 10 scale) ([6]; Preemergence, Rate 125 g/ha) | Velvetleaf plant response rating (0 to 10 scale) ([8]; Preemergence, Rate 125 g/ha) | Wheat plant response rating ([9]; Preemergence, Rate 500 g/ha) | Plant response rating, Wild oats [10, 19]
3: Plant response rating, B. signalgrass [2, 17] | Crabgrass plant response rating ([4]; Rate 62 g/ha, Postemergence) | Plant response rating, Velvetleaf [8, 19] | Plant response rating, Wild oats [10, 17] | Wild oats plant response rating (0 to 10 scale) ([10]; Preemergence, Rate 125 g/ha) | Wild oats plant response rating ([10]; Preemergence, Rate 250 g/ha) | S. Flatsedge plant response rating [13, 23]
9: Blackgrass plant response rating (0 to 10 scale) ([1]; Preemergence, Rate 125 g/ha) | Plant response rating, Crabgrass [4, 19] | Plant response rating, Giant foxtail [5, 19] | Rape plant response rating ([6]; Preemergence, Rate 250 g/ha) | Nutsedge plant response rating ([11]; Preemergence, Rate 500 g/ha)
